Legend:
[1] = biological target: T1, mouse TGR5 receptor (Mus musculus, UniProt Q80SS6); assay: Mouse TGR5 luminescent cAMP production assay (HEK293-EBNA cells, DiscoveRx cAMP XS+ kit); assay type: cell-based; details: HEK293-EBNA cells overexpressing mouse TGR5, luminescent cAMP assay; read-out: Mouse TGR5 Lum. cAMP Activity (EC50)
T1 construct: host or cells: HEK293-EBNA (293 c18, ATCC CRL10852)
T1 sequence (Q80SS6 1-329): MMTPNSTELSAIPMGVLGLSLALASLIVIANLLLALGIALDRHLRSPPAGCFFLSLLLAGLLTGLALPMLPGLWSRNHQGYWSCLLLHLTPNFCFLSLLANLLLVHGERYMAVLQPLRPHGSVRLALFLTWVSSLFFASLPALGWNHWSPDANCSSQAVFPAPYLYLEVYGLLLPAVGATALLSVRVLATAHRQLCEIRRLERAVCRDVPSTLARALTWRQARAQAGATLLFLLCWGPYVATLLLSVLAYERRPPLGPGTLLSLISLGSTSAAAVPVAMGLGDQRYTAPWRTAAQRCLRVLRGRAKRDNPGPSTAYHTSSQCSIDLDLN
How it was run: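 HEK293-EBNA cells stably expressing mouse TGR5, resuspended in serum-free DMEM with 500 μM IBMX, were premixed 20 min with cAMP antibody, then exposed to half-log compound dilutions for 1 h at room temperature. cAMP was read by luminescent enzyme-fragment complementation (cAMP XS+) after overnight incubation; EC50 derived.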

[2] = test system: blood glucose; assay: Oral glucose tolerance test (OGTT) in C57BL/6NTac mice; assay type: in vivo, mouse
Procedure: Oral Glucose Tolerance Test (OGTT)
Compounds of the present invention were tested to determine if they could decrease blood glucose levels in mice after glucose administration (i.e., effective in glycemic control). In this study, we orally administered a standard dose of glucose to mice and measured glucose levels in circulating blood at several defined time points after the glucose administration.
8-12 week old male C57BL/6NTac (Taconic) mice were fasted overnight. On the morning of the experiment, the mice were weighed and divided into experimental groups (n=8) assigned by randomizing mice based on baseline blood glucose levels. Following group assignments, mice were dosed with 3 mg/kg sitagliptin or PBS as vehicle control via oral gavage (5 mL/kg) exactly 1 hour before oral gavage dosing of compound (30 mg/kg) or vehicle (0.5% carboxymethylcellulose (medium viscosity)+0.25% Tween −80) at a volume of 10 mL/kg. Time zero blood glucose levels were measured 4 hours after compound or vehicle dosing. Immediately following time zero blood glucose level measurement, mice were gavaged with 2 g/kg of glucose. […] AUC were calculated and data analyzed using one-way ANOVA followed by Dunnett's post-test in GraphPad Prism (FIG. 2). […]

[3] = test system: GLP-1; assay: GLP-1 measurement at end of OGTT in C57BL/6NTac mice; assay type: in vivo, mouse; details: for blood GLP-1 level after OGTT, combination with sitagliptin: 30 mg/kg + sitagliptin 3 mg/kg p.o.
Procedure: Immediately after the last blood glucose measurement (i.e., 120 minutes after the glucose administration), the blood was collected via cardiac puncture for GLP-1 measurements. The collected blood (200-250 μL) was placed in an EDTA K^2+ tube containing 5 μL of 40 mg/mL aprotinin (Sigma A1153) and 1 μL of 10 mM sitagliptin (Sigma S8576) and plasma was separated by centrifugation. Plasma samples were stored at −20° C. until analysis. The active form of GLP-1 [GLP-1 (7-36) amide] was analyzed using Meso Scale Discovery System according to the manufacturer's directions (item number K150HYC). […] A synergy between the Compound 56 and sitagliptin is also observed (FIG. 3). Values of p<0.01 and <0.001 are considered statistically significant.
FIG. 4 depicts blood glucose measurements at 15, 30, 60, 90, and 120 min following glucose gavage. FIG. 5 depicts AUC data after glucose gavage. FIG. 6 depicts the blood GLP-1 levels comparing mice treated with a DPP-4 inhibitor (i.e., sitagliptin) to mice treated with Compound 268+a DPP-4 inhibitor (i.e., sitagliptin).

EC50 [1] [nM] | Structure (SMILES) | also measured
< 100 | N#Cc1ccc(CCNC(=O)[C@@H]2CCN2c2cc(N3CCC(CO)CC3)nc(C(F)(F)F)n2)cc1 [Compound 219, (S)—N-(4-cyanophenethyl)-1-(6-(4-(hydroxymethyl)piperidin-1-yl)-2-(trifluoromethyl)pyrimidin-4-yl)azetidine-2-carboxamide] | –
< 100 | N#Cc1ccc(CCNC(=O)[C@@H]2CCCN(c3cc(N4CCC(CO)CC4)nc(C(F)(F)F)n3)C2)cc1 [Compound 308, (R)—N-(4-cyanophenethyl)-1-(6-(4-(hydroxymethyl)piperidin-1-yl)-2-(trifluoromethyl)pyrimidin-4-yl)piperidine-3-carboxamide] | –
< 100 | COCC1CCN(c2cc(N3CCC[C@H]3C(=O)NCCc3ccc(C#N)cc3)nc(C(F)(F)F)n2)CC1 [Compound 24] | –
< 100 | N#Cc1ccc(CCNC(=O)[C@@H]2CCN2c2cc(N3CCC(CCO)CC3)nc(C(F)(F)F)n2)cc1 [Compound 223, (S)-N-(4-cyanophenethyl)-1-(6-(4-(2-hydroxyethyl)piperidin-1-yl)-2-(trifluoromethyl)pyrimidin-4-yl)azetidine-2-carboxamide] | –
– | N#Cc1ccc(CCNC(=O)[C@@H]2CCCN2c2cc(N3CCC(CCC(=O)NCCS(=O)(=O)O)CC3)nc(C(F)(F)F)n2)cc1 [Compound 56, (S)-2-(3-(1-(6-(2-((4-cyanophenethyl)carbamoyl)pyrrolidin-1-yl)-2-(trifluoromethyl)pyrimidin-4-yl)piperidin-4-yl)propanamido)ethanesulfonic acid] | blood glucose levels in OGTT ([2]; 30 mg/kg p.o. 4 h before 2 g/kg glucose, 15-120 min): effectively reduced blood glucose levels throughout the time period measured; blood GLP-1 level after OGTT, combination with sitagliptin [3]: synergy; blood GLP-1 level after OGTT ([3]; 30 mg/kg p.o., 120 min after glucose): increased GLP-1 level
< 100 | N#Cc1ccc(CCNC(=O)[C@@H]2CCCN2c2cc(N3CCC(CCN)CC3)nc(C(F)(F)F)n2)cc1 [Compound 50, (S)-1-(6-(4-(2-aminoethyl)piperidin-1-yl)-2-(trifluoromethyl)pyrimidin-4-yl)-N-(4-cyanophenethyl)pyrrolidine-2-carboxamide] | –
< 100 | N#Cc1ccc(CCNC(=O)[C@@H]2CCCN2c2cc(N3CCC(CCO)CC3)nc(C(F)(F)F)n2)cc1 [Compound 22] | –
– | N#Cc1ccc(CCNC(=O)[C@@H]2CCN2c2cc(N3CCC(CCNC(=O)NCCC(=O)O)CC3)nc(C(F)(F)F)n2)cc1 [Compound 268, (S)-3-(3-(2-(1-(6-(2-((4-cyanophenethyl)carbamoyl)azetidin-1-yl)-2-(trifluoromethyl)pyrimidin-4-yl)piperidin-4-yl)ethyl)ureido)propanoic acid] | blood glucose levels in OGTT, combination with sitagliptin ([2]; 30 mg/kg + sitagliptin 3 mg/kg p.o. versus sitagliptin alone): effectively reduced blood glucose levels throughout the time period measured; blood GLP-1 level after OGTT, combination with sitagliptin [3]: induced GLP-1 production

From US10654834B2 (Venenum Biodesign, LLC, priority 2016, dated 2020)
